Test results as given in patent US6737383B1, “Herbicidal oxadiazolidines” (priority 1999, dated 2004).

How the values were obtained:
[1] = tested on: bedstraw; test: Test B pre/postemergence bedstraw; format: in vivo, Galium aparine
Summary of the method: (§1)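 Test chemicals in a non-phytotoxic solvent mixture with surfactant were sprayed preemergence onto planted seeds and postemergence onto plants 2 to 18 cm tall (1- to 4-leaf stage). After twelve to sixteen days in a greenhouse, injury was visually rated against untreated controls from 0 (no effect) to 10 (complete control).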

[2] = tested on: wheat; test: Test B pre/postemergence wheat; format: in vivo, Triticum aestivum
Summary of the method: as §1

[3] = tested on: corn; test: Test B pre/postemergence corn; format: in vivo, Zea mays
Summary of the method: as §1

[4] = tested on: blackgrass; test: Test B pre/postemergence blackgrass; format: in vivo, Alopecurus myosuroides
Summary of the method: as §1

[5] = tested on: surinam grass; test: Test B pre/postemergence surinam grass; format: in vivo, Brachiaria decumbens
Summary of the method: as §1

[6] = tested on: purple nutsedge; test: Test B pre/postemergence purple nutsedge; format: in vivo, Cyperus rotundus
Summary of the method: as §1

[7] = tested on: crabgrass; test: Test B pre/postemergence crabgrass; format: in vivo, Digitaria sanguinalis
Summary of the method: as §1

[8] = tested on: pigweed; test: Test B pre/postemergence pigweed; format: in vivo, Amaranthus retroflexus
Summary of the method: as §1

[9] = tested on: cocklebur; test: Test B pre/postemergence cocklebur; format: in vivo, Xanthium strumarium
Summary of the method: as §1

[10] = tested on: soybean; test: Test B pre/postemergence soybean; format: in vivo, Glycine max
Summary of the method: as §1

[11] = tested on: wild oat; test: Test B pre/postemergence wild oat; format: in vivo, Avena fatua
Summary of the method: as §1

[12] = tested on: morningglory; test: Test B pre/postemergence morningglory; format: in vivo, Ipomoea hederacea
Summary of the method: as §1

[13] = tested on: velvetleaf; test: Test B pre/postemergence velvetleaf; format: in vivo, Abutilon theophrasti
Summary of the method: as §1

[14] = tested on: giant foxtail; test: Test B pre/postemergence giant foxtail; format: in vivo, Setaria faberii
Summary of the method: as §1

[15] = tested on: rape; test: Test B pre/postemergence rape; format: in vivo, Brassica napus
Summary of the method: as §1

[16] = tested on: sugar beet; test: Test B pre/postemergence sugar beet; format: in vivo, Beta vulgaris
Summary of the method: as §1

[17] = Postemergence, Rate 62 g/ha, scale of 0 to 10, 0 is no effect, 10 is complete control
[18] = Postemergence, Rate 500 g/ha, scale 0 to 10, 0 is no effect, 10 is complete control
[19] = Preemergence, Rate 62 g/ha, scale 0 to 10 (0 no effect, 10 complete control)
[20] = Preemergence, Rate 125 g/ha, scale 0 to 10, 0 is no effect, 10 is complete control
[21] = Preemergence, Rate 500 g/ha, scale of 0 to 10 where 0 is no effect and 10 is complete control
[22] = Rate 250 g/ha, Postemergence, scale of 0 to 10 where 0 is no effect and 10 is complete control
[23] = Postemergence, Rate 125 g/ha, scale 0 to 10, 0 is no effect, 10 is complete control

## CC(C)N(C(=O)n1oc(=O)n(C(C)C(=O)c2ccccc2)c1=O)c1ccc(Cl)cc1 (stereo not drawn) [Compound 541]
[1]; [17]
  Bedstraw plant response rating: 0
[1]; [18]
  Plant response rating, Bedstraw: 5
[1]; [19]
  Bedstraw plant response rating: 0
[1]; [20]
  Bedstraw plant response rating: 0
[1]; Preemergence, Rate 250 g/ha
  Bedstraw plant response rating (0 to 10 scale): 0
[1]; [21]
  Bedstraw plant response rating: 3
[1]; [22]
  Plant response rating, Bedstraw: 5
[2]; [17]
  Wheat plant response rating: 0
[2]; [23]
  Wheat plant response rating: 0
[2]; [18]
  Plant response rating, Wheat: 0
[2]; [19]
  Wheat plant response rating: 0
[2]; [20]
  Wheat plant response rating: 0
[2]; Preemergence, Rate 250 g/ha
  Wheat plant response rating (0 to 10 scale): 3
[2]; [21]
  Wheat plant response rating: 3
[2]; [22]
  Plant response rating, Wheat: 0
[3]; [17]
  Corn plant response rating: 0
[3]; [23]
  Corn plant response rating: 0
[3]; [18]
  Plant response rating, Corn: 0
[3]; [19]
  Corn plant response rating: 0
[3]; [20]
  Corn plant response rating: 0
[3]; Preemergence, Rate 250 g/ha
  Corn plant response rating (0 to 10 scale): 0
[3]; [21]
  Corn plant response rating: 0
[3]; [22]
  Plant response rating, Corn: 0
[4]; [17]
  Blackgrass plant response rating: 0
[4]; [23]
  Blackgrass plant response rating: 0
[4]; [18]
  Plant response rating, Blackgrass: 0
[4]; [19]
  Blackgrass plant response rating: 0
[4]; [20]
  Blackgrass plant response rating: 0
[4]; Preemergence, Rate 250 g/ha
  Blackgrass plant response rating (0 to 10 scale): 0
[4]; [21]
  Blackgrass plant response rating: 2
[4]; [22]
  Plant response rating, Blackgrass: 0
[5]; [17]
  B. signalgrass plant response rating: 0
[5]; [23]
  B. signalgrass plant response rating: 0
[5]; [18]
  Plant response rating, B. signalgrass: 2
[5]; [19]
  B. signalgrass plant response rating: 0
[5]; [20]
  B. signalgrass plant response rating: 0
[5]; Preemergence, Rate 250 g/ha
  B. signalgrass plant response rating (0 to 10 scale, 0 is no effect, 10 is complete control): 0
[5]; [21]
  B. signalgrass plant response rating: 5
[5]; [22]
  Plant response rating, B. signalgrass: 0
[6]; [17]
  Nutsedge plant response rating: 0
[6]; [23]
  Nutsedge plant response rating: 0
[6]; [18]
  Plant response rating, Nutsedge: 0
[6]; [20]
  Nutsedge plant response rating: 0
[6]; Preemergence, Rate 250 g/ha
  Nutsedge plant response rating (0 to 10 scale): 0
[6]; [21]
  Nutsedge plant response rating: 0
[6]; [22]
  Plant response rating, Nutsedge: 0
[7]; [17]
  Crabgrass plant response rating: 0
[7]; [23]
  Crabgrass plant response rating: 0
[7]; [18]
  Plant response rating, Crabgrass: 3
[7]; [19]
  Crabgrass plant response rating: 5
[7]; [20]
  Crabgrass plant response rating: 5
[7]; Preemergence, Rate 250 g/ha
  Crabgrass plant response rating (0 to 10 scale): 10
[7]; [21]
  Crabgrass plant response rating: 10
[7]; [22]
  Plant response rating, Crabgrass: 0
[8]; [17]
  Redroot pigweed plant response rating: 0
[8]; [23]
  Redroot pigweed plant response rating: 0
[8]; [18]
  Plant response rating, Redroot pigweed: 3
[8]; [19]
  Redroot pigweed plant response rating: 0
[8]; [20]
  Redroot pigweed plant response rating: 0
[8]; Preemergence, Rate 250 g/ha
  Redroot pigweed plant response rating (0 to 10 scale): 0
[8]; [21]
  Redroot pigweed plant response rating: 0
[8]; [22]
  Plant response rating, Redroot pigweed: 0
[9]; [17]
  Cocklebur plant response rating: 0
[9]; [23]
  Cocklebur plant response rating: 0
[9]; [18]
  Plant response rating, Cocklebur: 5
[9]; [20]
  Cocklebur plant response rating: 0
[9]; [22]
  Plant response rating, Cocklebur: 5
[10]; [17]
  Soybean plant response rating: 0
[10]; [23]
  Soybean plant response rating: 0
[10]; [18]
  Plant response rating, Soybean: 2
[10]; [19]
  Soybean plant response rating: 0
[10]; [20]
  Soybean plant response rating: 0
[10]; Preemergence, Rate 250 g/ha
  Soybean plant response rating (0 to 10 scale): 0
[10]; [21]
  Soybean plant response rating: 0
[10]; [22]
  Plant response rating, Soybean: 1
[11]; [17]
  Wild oats plant response rating: 0
[11]; [23]
  Wild oats plant response rating: 0
[11]; [18]
  Plant response rating, Wild oats: 2
[11]; [19]
  Wild oats plant response rating: 0
[11]; [20]
  Wild oats plant response rating: 0
[11]; Preemergence, Rate 250 g/ha
  Wild oats plant response rating (0 to 10 scale): 5
[11]; [21]
  Wild oats plant response rating: 5
[11]; [22]
  Plant response rating, Wild oats: 0
[12]; [17]
  Morningglory plant response rating: 0
[12]; [23]
  Morningglory plant response rating: 1
[12]; [18]
  Plant response rating, Morningglory: 3
[12]; [19]
  Morningglory plant response rating: 0
[12]; [20]
  Morningglory plant response rating: 0
[12]; Preemergence, Rate 250 g/ha
  Morningglory plant response rating (0 to 10 scale): 0
[12]; [21]
  Morningglory plant response rating: 0
[12]; [22]
  Plant response rating, Morningglory: 1
[13]; [17]
  Velvetleaf plant response rating: 0
[13]; [23]
  Velvetleaf plant response rating: 0
[13]; [18]
  Plant response rating, Velvetleaf: 0
[13]; [19]
  Velvetleaf plant response rating: 0
[13]; [20]
  Velvetleaf plant response rating: 0
[13]; Preemergence, Rate 250 g/ha
  Velvetleaf plant response rating (0 to 10 scale): 0
[13]; [21]
  Velvetleaf plant response rating: 0
[13]; [22]
  Plant response rating, Velvetleaf: 0
[14]; [17]
  Giant foxtail plant response rating: 0
[14]; [23]
  Giant foxtail plant response rating: 0
[14]; [18]
  Plant response rating, Giant foxtail: 2
[14]; [19]
  Giant foxtail plant response rating: 7
[14]; [20]
  Giant foxtail plant response rating: 10
[14]; Preemergence, Rate 250 g/ha
  Giant foxtail plant response rating (0 to 10 scale): 10
[14]; [21]
  Giant foxtail plant response rating: 10
[14]; [22]
  Plant response rating, Giant foxtail: 0
[15]; [17]
  Rape plant response rating: 0
[15]; [23]
  Rape plant response rating: 0
[15]; [18]
  Plant response rating, Rape: 3
[15]; [19]
  Rape plant response rating: 0
[15]; [20]
  Rape plant response rating: 0
[15]; Preemergence, Rate 250 g/ha
  Rape plant response rating (0 to 10 scale): 0
[15]; [21]
  Rape plant response rating: 0
[15]; [22]
  Plant response rating, Rape: 3
[16]; [17]
  Sugarbeets plant response rating: 0
[16]; [23]
  Sugarbeets plant response rating: 0
[16]; [18]
  Plant response rating, Sugarbeets: 4
[16]; [19]
  Sugarbeets plant response rating: 0
[16]; [20]
  Sugarbeets plant response rating: 0
[16]; Preemergence, Rate 250 g/ha
  Sugarbeets plant response rating (0 to 10 scale): 0
[16]; [21]
  Sugarbeets plant response rating: 2
[16]; [22]
  Plant response rating, Sugarbeets: 0
